From patent publication US9605042B2, “Compositions and methods related to tauopathy” (REGENTS OF THE UNIVERSITY OF MINNESOTA, priority 2012, dated 2017) come the findings set out here.

Peptide text beside a SMILES is read from it. * marks the point of attachment. Cbz = O=C(OCc1ccccc1)*; CH2F = FC*

One test addresses T1, caspase-7 (Homo sapiens, UniProt P55210).
T1 sequence (P55210 24-198 limits assumed): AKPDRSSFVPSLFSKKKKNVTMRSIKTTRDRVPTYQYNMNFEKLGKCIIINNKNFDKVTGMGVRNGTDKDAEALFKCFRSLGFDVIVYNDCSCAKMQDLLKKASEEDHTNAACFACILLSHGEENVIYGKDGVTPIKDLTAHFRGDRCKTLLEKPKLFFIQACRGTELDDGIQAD
T1 sequence (P55210 207-303 limits assumed): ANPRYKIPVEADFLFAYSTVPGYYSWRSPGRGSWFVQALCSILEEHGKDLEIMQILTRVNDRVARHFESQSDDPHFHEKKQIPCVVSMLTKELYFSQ
The test is described as follows: competitive binding assay against caspase-7 (PROMEGA-GLO 2). Conditions: read-out: K value (caspase-7).

The next test relates to rTg4510 neurons. The test is described as follows: Excitatory synaptic transmission (mEPSCs) in rTg4510 neurons. Format: cell-based, mouse. Conditions: 20 μM for two hours. How it is done:
FIG. 17. Excitatory Synaptic Transmission in rTg4510 neurons treated with caspase-2 inhibitor. (A) Mean mEPSC amplitudes of rTg4510 neurons (−/− and +/+) treated with 20 μM caspase-2 inhibitor (Ac-VDVAD-CHO; SEQ ID NO:36) for two hours. […] Caspase-2 inhibitor had no effect on rTg4510 (−/−) neurons. (B) Mean mEPSC frequency of rTg4510 neurons (−/− and +/+) treated with 20 μM caspase-2 inhibitor for two hours. Caspase-2 inhibitor had no effect on rTg4510 neurons (−/− or +/+) frequencies.
Miniature excitatory postsynaptic […] (mEPSCs) were recorded at −55 mV in artificial cerebrospinal fluid (aCSF) containing 100 LM AP7 (NMDAR antagonist, Tocris Bioscience, UK), 1 μM TTX (sodium channel blocker, Tocris Bioscience, UK) and 50 μM bicuculline (GABA receptor antagonist, Sigma-Aldrich, St. Louis, Mo.). Electrophysiology experiments were conducted using AXON DIGIDATA 1440A data acquisition system (Molecular Devices, LLC, Sunnyvale, Calif.), AXOPATCH 200B amplifier (Molecular Devices, LLC, Sunnyvale, Calif.), pCLAMP10 software (Molecular Devices. LLC, Sunnyvale, Calif.). Data was analyzed using AxoGraph X software (Berkeley, Calif.).

The subject of the next test is rat hippocampal neurons. The test is described as follows: GFP-tau-containing dendritic spines in neurons coexpressing DsRed and GFP-tau. The following applies: rising concentration of caspase-2 inhibitor. Format: cell-based. How it is done:
FIG. 15. Images of rat hippocampal neurons coexpressing Dsred and GFP-tagged wild-type tau or tau P301 L mutant. Neurons were treated with caspase-2 inhibitor Ac-VDVAD-CHO (SEQ ID NO:36) or caspase-3 inhibitor Ac-DEVD-CHO (SEQ ID NO:37) for 1 day.
FIG. 16. Quantification of total spines and GFP-tau-containing spines in neurons coexpressing DsRed and GFP-tau.
Based on methods described in Hoover et al., Neuron 2010, dissociated rat hippocampal primary neuron cultures were prepared. Briefly, a 25 mm glass coverslip (thickness, 0.08 mm) was glued over a 22 mm hole in the bottom of a 35 mm tissue culture dish using silicone sealant. Dissociated neuronal cultures from rat hippocampi at P1 were prepared. Neurons were plated onto prepared 35 mm tissue culture dishes at a density of 1×10^6 cells per dish. The age of cultured neurons was counted from the day of plating (1 DIV). Neurons at 7 DIV were transfected using a standard calcium phosphate precipitation method and allowed to grow to maturity (>3 weeks) to be imaged. Neurons were transfected with equivalent concentrations of constructs encoding various tau proteins. The plasmid encoding DsRed was cotransfected with tau constructs to visualize dendritic spines. Recombinant tau protein or TCP35 protein (10 μM) was directly added to culture medium 1 hour before imaging to stimulate neuronal cultures. […]

The next test concerns the target T2, recombinant caspase-2 (Homo sapiens, UniProt P42575).
T2 construct: made in house
T2 sequence (P42575 170-325 limits assumed): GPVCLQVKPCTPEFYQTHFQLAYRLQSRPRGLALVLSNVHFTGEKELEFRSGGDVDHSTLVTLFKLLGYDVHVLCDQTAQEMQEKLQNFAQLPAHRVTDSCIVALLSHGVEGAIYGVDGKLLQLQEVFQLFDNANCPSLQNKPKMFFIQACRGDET
T2 sequence (P42575 348-452 limits assumed): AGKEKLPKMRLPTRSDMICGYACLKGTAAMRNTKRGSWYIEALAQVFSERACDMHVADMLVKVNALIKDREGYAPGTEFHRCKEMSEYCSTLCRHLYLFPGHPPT
The test can be described thus: Screening assay: caspase-2-mediated cleavage of Asp314 peptide substrate (LabChip). Format: biochemical. The following applies: substrate coincubated with recombinant caspase-2 and inhibitor, fluorescence by LabChip. Here is the method:
FIG. 10. Caspase-2-mediated cleavage of Asp314 peptide substrate. Synthetic peptide substrate FITC-AHX-GSVQIVYKPVDLSKVTS-COOH (SEQ ID NO:4) was designed based on amino acids 304-320 of tau protein that encompasses Asp314 cleavage site. The peptide substrate was cleaved by coincubating with recombinant caspase-2 and was separated from cleavage product by using LabChip drug discovery system. The fluorescence emitted by FITC group was monitored to measure peptide quantity.
FIG. 11. Caspase inhibitor blocks caspase-2-mediated cleavage of Asp314 peptide substrate. Synthetic peptide substrate was coincubated with recombinant caspase-2 in the presence of general caspase inhibitor z-VAD-fmk. The fluorescence of the substrate peptide was measured by using LabChip drug discovery system.
Unless otherwise stated, chemicals were purchased from Sigma-Aldrich (St. Louis, Mo.). Caspase-2 was made in-house; reference Caspase-2 inhibitor Z-VAD-FMK was purchased from BD Pharmingen (San Diego, Calif.). […]
Plates were screened in a LabChip 3000 (Caliper Life Sciences Inc., Hopkinton, Mass.) with temperature and relative humidity set to 20° C. and 50%. A 12-sipper chip sampled contents from each well and measured the fluorescent intensity of the substrate and product peaks. […] Data were analyzed using Caliper's HTS Well Analyzer software.

In test [1] the test system is recombinant caspases -1, -2, -3, -6, -7, -8, -9, or -10. The test is described as follows: Caspase cleavage assay of tau proteins (immunoblot with Tau-13). Conditions: 50 μM inhibitor, 37° C., 2 hours, tau from three sources. Format: biochemical. Here is the method:
FIG. 5. Caspase-2 cleaves tau in vitro, producing a 35 kDa fragment. Recombinant caspases -1, -2, -3, -6, -7, -8, -9, or -10 were incubated at 37° C. for 2 hours with tau proteins derived from three different sources. […] Caspases-1 and -8 may cleave tau proteins near the N-terminus and remove Tau-13 mAb epitopes, preventing detection of proteolytic products. Arrows denote the 35 kDa fragment, and arrowheads denote the tau fragment truncated at D421.
Tau proteins (200 ng immunoprecipitates from rTg[tauP301L]4510 or rTg[tauWT]21221 brain lysates, or 1 μl synthetic proteins generated with TNT T7 Quick Coupled Transcription/Translation System [Promega Corp., Madison, Wis.]) were diluted in assay buffer (20 mM HEPES pH 7.2, 10 mM DTT, 1 mM EDTA, 0.1% CHAPS) to a final volume of 50 μl. One unit of recombinant caspase was added to the reactions in the presence or absence of 50 μM z-VAD-fmk (Calbiochem, EMD Biochemicals, San Diego, Calif.). The reactions were incubated at 37° C. for […] and stopped by adding Laemmli sample buffer (62.5 mM Tris-HCl [pH 6.8], 25% glycerol, 2% SDS, and 0.01% bromophenol blue).
For orientation: A western blot detects proteins with antibodies after separation by electrophoresis.

As for `CC(=O)N[C@@H](Cc1ccc(O)cc1)C(=O)N[C@@H](CCCCN)C(=O)N1CCC[C@H]1C(=O)N[C@H](C(=O)N[C@H](C=O)CC(=O)O)C(C)C` [SEQ ID NO:1, Ac-YKPVD-CHO] (Ac-YKPVD-aldehyde), the Ki on caspase-7 was greater than 100 µM.
In the case of Ac-VDVAD-CHO (Ac-VDVAD-aldehyde), in the test with rTg4510 neurons, the “mean mEPSC amplitude, rTg4510 (−/−) neurons” value is on record as “no effect” and the “mean mEPSC frequency, rTg4510 neurons (−/− or +/+)” value was “no effect”. In the test with rTg4510 neurons (compared to vehicle), the “mean amplitude of AMPA mEPSCs, rTg4510 (+/+) neurons” value is “significantly increased”. In addition, the “number of spines with tau” value with rat hippocampal neurons is listed as “decreases”.
As to “benzyloxycarbonyl-Val-Ala-Asp-fluoromcthylketone (Cbz-Val-Ala-Asp-CH2F) [z-VAD-fmk]”, in the test with recombinant caspase-2, the “caspase-2-mediated cleavage of Asp314 peptide substrate” value was “blocks”. In addition, the “cleavage of tau proteins by recombinant caspases” value in test [1] is “blocked all cleavage”.
